Here are results for 1 molecule from US9598460B2 (UNIVERSITY OF NOTRE DAME DU LAC, priority 2011, dated 2017).

Experiment [1] addresses nucleotide binding site of mouse anti-FITC antibody. The experiment is described as follows: Sandwich ELISA binding of biotin-linked indole-3-butyric acid to antigen-captured antibody. To be noted: fit of normalized fluorescent intensity, read-out: Kd (binding affinity). The source says:
(§1) FIG. 2B illustrates a sandwich ELISA, in accordance with various embodiments;
(§2) HRP-streptavidin was used to bind the biotin, and a fluorescent substrate was used to quantify the amount of indole-3-butyric acid that was present on the surface.
Background: ELISA stands for enzyme-linked immunosorbent assay.

The target in experiment [2] is nucleotide binding site of chimeric human/mouse Rituximab. The description is as above. To be noted: fit of normalized fluorescent intensity, read-out: Kd (binding affinity).
Excerpt: as §1, §2

Experiment [3] deals with nucleotide binding site of rat anti-DNP antibody. The experiment is described as above. The conditions noted are these: fit of normalized fluorescent intensity, read-out: Kd (binding affinity).
Excerpt: as §1, §2

In experiment [4] the target is nucleotide binding site of three different antibodies. The experiment is described as follows: Sandwich ELISA, summary over three antibodies. As for the experimental part:
as §1, §2
Thus, the monovalent Kd values for the indole binding to the nucleotide binding site of three different antibodies ranged between 1-7 μM, showing a 7- to 50-fold enhancement in binding affinity over adenine.

Molecules are shown by their SMILES.

Take `O=C(O)CCCc1c[nH]c2ccccc12` [indole-3-butyric acid]: the Kd is 6410 nM in experiment [1]; 1700 nM in experiment [2]; 1270 nM in experiment [3]; 1000 to 7000 nM in experiment [4] (range over three different antibodies, read-out: monovalent Kd values). Moreover, the “enhancement in binding affinity over adenine” value in experiment [4] (relative to adenine) was 7- to 50 fold.

In general, Kd refers to the free concentration of one partner at which half of the binding sites on the other are occupied at equilibrium, for simple one-to-one binding.
